Reference: patent EP1708692B1, “DICHLOROACETATE IN COMBINATION WITH AN INOTROPE FOR CARDIOPROTECTION” (The Governors of the University of Alberta, priority 2004, dated 2005)
Where “and” joins values, the source holds several entries; their conditions need not be identical. Equal entries are not always repeated. Where two headings read alike, the source gives them in different places.

Legend:
[1] = Plasma DCA levels by HPLC after bolus, adult CABG patients (Example A); type: in vivo; details: human, 50 mg/kg, following infusion of 50mg/kg Na+ Dichloroacetate via cardiopulmonary bypass pump, 1 hour following administration, n=8
Experimental: (§1) DCA or saline was administered to 18 patients undergoing elective cardiac bypass grafting surgery (CABG) in a double blinded randomized manner DCA (50mg/kg in 100 ml of saline) or placebo was injected into the aortic root, immediately prior to removing aortic cross clamp. Based on the pharmacokinetics of DCA, we anticipated that this would produce a plasma concentration of approximately 1 mM. The study consisted of 8 DCA-treated patients and 10 placebo-treated patients.
(§2) The intervention involved DCA (50mg/kg) or placebo injected into the aortic root immediately prior to removing aortic cross clamp. The coded solution was made such that a dose of lml/kg provides the appropriate dose of DCA or placebo. Based on the pharmacokinetics of DCA, this was expected to result in a plasma level of DCA in the therapeutic range of (1mM). All blood samples were analyzed by HPLC for DCA concentration.
Plasma samples were processed for DCA levels using a high performance liquid chromatography (HPLC) technique that separated the DCA from other plasma constituents. In brief, 20 µl of plasma sample was injected into a Beckman Gold HPLC containing a IonoBpher 5A column (250x4.6mm LxID) and a AX Guard Column. […] The flow rate of the HPLC was set at 3.0 ml/min and the DCA eluted from the column was detected by comparing DCA elution times to acetate, monochloroacetate, and trichloroacetate standards. […]

[2] = system: patients undergoing elective cardiac bypass grafting surgery (CABG); assay: Mortality in adult CABG study (Example A); type: in vivo, human; details: 50mg/kg bolus, 8 DCA-treated adult patients
Experimental: as §1, §2

[3] = system: pediatric patients requiring heart surgery to connect complex congenital heart lesions; assay: Clinical outcome after single DCA bolus: Inotrope Score, ICU time, ventilator time, echocardiography (Example B); type: in vivo; details: 50mg/kg bolus, placebo patients 26%
Experimental: This study was a randomized, placebo-controlled, double blinded, single surgeon, study of the use of DCA in 40 high-risk pediatric patients requiring heart surgery to connect complex congenital heart lesions.
In this trial, 40 children were recruited to participate in a single surgeon study, of which 18 received DCA and 22 received placebo. The 1995 power calculations were based on separation of the CPB-1 trial of n = 40 patients.
as §2, with “in” for “in a”, “levels” for “level”
In both the operating room at the end of cardiopulmonary bypass and in the intensive care unit, parenteral drugs were scored on an hourly basis with 1 point allotted for each level for each bolus or infusion given within the previous hour for the first 24 hours post-operatively. Thus, at the end of 24 hours high scores indicated poorer cardiac function.

[4] = Plasma DCA levels by HPLC, bolus and infusion protocol (Example C); type: in vivo, pediatric patients; details: human
Experimental: (§3) DCA (50mg/kg) or placebo was injected into the aortic root immediately prior to removing aortic cross clamp. The coded solutions were made such that a dose of 1 ml/kg provided either a DCA therapeutic level of 1mM plasma concentration of DCA, or a placebo solution. Immediately thereafter, an infusion of DCA at 25mg/kg/hr or placebo in the same volume was initiated and run for 24 hours. Based on the pharmacokinetics of DCA, this was expected to maintain plasma levels of DCA in the therapeutic range of (0.2-1mM). However, the plasma concentrations of DCA were below 1mM after the first hour interval, and that the 24 hour plasma concentrations were elevated above 1mM DCA levels at the 24 hour interval, a decision was made to modify the dosing protocol. This change in dosing protocol was approved by the Ethics Committee, but not implemented until patient number 24. All blood samples were analyzed by HPLC for DCA concentration.
(§4) DCA (100mg/kg) or placebo was injected into the aortic root immediately prior to removing aortic cross clamp. The coded solutions were made such that a dose of 1 ml/kg provided either a DCA therapeutic level of 1mM plasma concentration of DCA, or a placebo solution. Immediately thereafter, an infusion of DCA at 12.5mg/kg/hr or placebo in the same volume was initiated and run for 24 hours. Based on the pharmacokinetics of DCA, this was expected to maintain plasma levels of DCA in the therapeutic range of (0.2-1mM). All blood samples were analyzed by HPLC for DCA concentration.
Arterial blood samples were obtained from patients at the following times: • a. Immediately after the insertion of arterial line in operating room (i.e., at beginning of surgery). • b. Thirty minutes after the bolus of DCA has been given, whether or not cardiopulmonary bypass has been discontinued. • c. One hour after discontinuing cardiopulmonary bypass. • d. Six hours after discontinuing cardiopulmonary bypass • e. Twelve hours after discontinuing cardiopulmonary bypass. • f. Twenty four hours after discontinuing cardiopulmonary bypass. At the end of 24 hours, the DCA or placebo infusion was discontinued.
Blood samples were collected from indwelling arterial lines into citrate-containing tubes (0.5 ml blood samples). The samples were spun in the microfuge, the plasma separated, and frozen immediately for later analysis. All plasma samples were stored at -80 degrees centigrade, until further processing. Plasma glucose and lactate were determined using a Sigma glucose kit and a spectrophotometric assay involving lactate dehydrogenase respectively. Plasma fatty acid levels were measured using an ELISA system and WAKO free fatty acid kit.

[5] = system: pediatric patients requiring heart surgery to correct complex congenital heart lesions; assay: Clinical outcome after DCA bolus and 24 hour infusion: Inotrope Score, ICU time, ventilator time (Example C); type: in vivo; parameters: reduction of Inotrope Scores: concentration or dose not given beside the values; details: compared to placebo; for average decrease in Inotrope Score per patient: over the 24 hour period
Experimental: This study was a randomized, placebo-controlled, double blinded, single surgeon, study of the use of DCA in 51 high-risk pediatric patients requiring heart surgery to correct complex congenital heart lesions.
In this trial, 53 infants were recruited to participate in a study, of which 51 patients met inclusion criteria after parental consent. Two dosing groups resulted from the study team changing the dosing protocol after the data from the initial 10 patients were analyzed. The data from patients number 1 to number 10 was analyzed for DCA therapeutic blood levels and therapeutic effect. A recommendation by the research team was made to increase the bolus dose of DCA and to decrease the infusion dose of DCA to maintain a DCA dose range of 1mM for 24 hours. The intent was to administer the new protocol at patient number 20. The 1997 Epicore power calculations were based on separation of the study groups patients into group A of n = 20 patients and Group B of n = 31 patients
as §3, §4
In both the operating room at the end of cardiopulmonary bypass and in the intensive care unit, parenteral drugs were scored on an hourly basis with 1 point allotted for each level for each bolus or infusion given within the previous hour within the first 24 hours post-operatively. Thus at the end of 24 hours, high scores indicated poorer cardiac function.

patients = assay: Observed side effects of DCA in patients
[6] = Group A, 50mg/kg bolus and 25mg/kg/hour infusion
[7] = Group B, 100mg/kg bolus and 12.5mg/kg/hour infusion

With `O=C(O)C(Cl)Cl` [DCA, dichloroacetate] the concentration at 1 h [1] was about 1000 µM, the mortalities [2] was “no mortalities” and the “shortening fraction (echocardiography)” value [3] was 35%. It also gave a concentration at 24 h ([4]; 50 mg/kg, Example C, 24 hour interval (Group A), read-out: optimum mean level of DCA in plasma) of 2.29 mM, a concentration at 24 h ([4]; 50 mg/kg, Group A protocol (50mg/kg bolus, 25mg/kg/hr infusion), 24 hour interval, initial patients, read-out: plasma concentrations of DCA) of over 1 mM and a concentration at 1 h ([4]; 50 mg/kg, Group A protocol (50mg/kg bolus, 25mg/kg/hr infusion), after the first hour interval, initial patients, read-out: plasma concentrations of DCA) of under 1 mM. The concentration at 12 h ([4]; 50 mg/kg, Group A, 50mg/kg bolus and 25mg/kg/hr infusion, n=9, read-out: Average DCA Plasma Levels, mM at 12 hr) was 1.77 mM, the concentration at 6 h ([4]; 50 mg/kg, Group A, 50mg/kg bolus and 25mg/kg/hr infusion, n=10, read-out: Average DCA Plasma Levels, mM at 6 hr) was 1.13 mM and the concentration at 1 h ([4]; 50 mg/kg, Group A, 50mg/kg bolus and 25mg/kg/hr infusion, n=11, read-out: Average DCA Plasma Levels, mM at 1 hr) was 0.46 mM. It also gave a concentration at 24 h ([4]; 50 mg/kg, Group A, 50mg/kg bolus and 25mg/kg/hr infusion, n=11, read-out: Average DCA Plasma Levels, mM at 24 hr) of 2.72 mM, a concentration at 6 h ([4]; 50 mg/kg, Group A, 50mg/kg bolus and 25mg/kg/hr infusion, patients with greatest degree of clinical benefits, m=5, read-out: Average Optimum Mean of DCA Plasma Levels, mM at 6 hr) of 0.916 mM and a concentration at 12 h ([4]; 50 mg/kg, Group A, 50mg/kg bolus and 25mg/kg/hr infusion, patients with greatest degree of clinical benefits, m=5, read-out: Average Optimum Mean of DCA Plasma Levels, mM at 12 hr) of 1.52 mM. The concentration at 24 h ([4]; 50 mg/kg, Group A, 50mg/kg bolus and 25mg/kg/hr infusion, patients with greatest degree of clinical benefits, m=6, read-out: Average Optimum Mean of DCA Plasma Levels, mM at 24 hr) was 2.29 mM, the concentration at 6 h ([4]; 100 mg/kg, Example C, 1 to 6 hour period (Group B), read-out: optimum mean level of DCA in plasma) was 1 mM and the concentration at 6 h ([4]; 100 mg/kg, Group B, 100mg/kg bolus and 12.5 mg/kg/hr infusion, n not given, read-out: Average Optimum Mean of DCA Plasma Levels, mM at 6 hr) was 1 mM. The concentration at 12 h ([4]; 100 mg/kg, Group B, 100mg/kg bolus and 12.5 mg/kg/hr infusion, n not given, read-out: Average Optimum Mean of DCA Plasma Levels, mM at 12 hr) was 1 mM, the concentration at 24 h ([4]; 100 mg/kg, Group B, 100mg/kg bolus and 12.5 mg/kg/hr infusion, n not given, read-out: Average Optimum Mean of DCA Plasma Levels, mM at 24 hr) was 1 mM and the concentration at 24 h ([4]; 100 mg/kg, Group B, 100mg/kg bolus and 12.5 mg/kg/hr infusion, n=10, read-out: Average DCA Plasma Levels, mM at 24 hr) was 2.23 mM. The concentration at 1 h ([4]; 100 mg/kg, Group B, 100mg/kg bolus and 12.5 mg/kg/hr infusion, n=11, read-out: Average DCA Plasma Levels, mM at 1 hr) was 1.13 mM, the concentration at 6 h ([4]; 100 mg/kg, Group B, 100mg/kg bolus and 12.5 mg/kg/hr infusion, n=11, read-out: Average DCA Plasma Levels, mM at 6 hr) was 0.894 mM and the concentration at 12 h ([4]; 100 mg/kg, Group B, 100mg/kg bolus and 12.5 mg/kg/hr infusion, n=11, read-out: Average DCA Plasma Levels, mM at 12 hr) was 1.43 mM. The concentration at 6 h ([4]; Example C, 1 to 6 hour interval, read-out: DCA plasma level range) was 0.229 to 2.22 mM, the concentration at 12 h ([4]; Example C, 12 hour interval, read-out: DCA plasma level range) was 0.38 to 3.07 mM and the concentration at 12 h ([4]; Example C, 12 hour interval, read-out: optimum mean level of DCA in plasma) was 1.52 mM. For the same compound, the concentration at 24 h ([4]; Example C, 24 hour interval, read-out: DCA plasma level range) was 1.74 to 3.9 mM, the concentration at 1 h ([4]; Group A, 50mg/kg bolus and 25mg/kg/hr infusion, patients with greatest degree of clinical benefits, n not given, read-out: Average Optimum Mean of DCA Plasma Levels, mM at 1 hr) was 1 mM and the concentration at 1 h ([4]; Group B, 100mg/kg bolus and 12.5 mg/kg/hr infusion, patients with greatest degree of clinical benefits, n=7, read-out: Average Optimum Mean of DCA Plasma Levels, mM at 1 hr) was 1.01 mM. For the same compound, the “reduction of time in ICU” value ([5]; Group A, 50mg/kg bolus and 25mg/kg/hour infusion, 23 patients) was 60 h, the “decrease of time in ICU” value [5, 6] was 41% and the “decrease of ventilator time” value [5, 6] was 47%. For the same compound, the “reduction of ventilator time” value [5, 6] was 46 h, the “reduction of Inotrope Scores” value ([5]; Group A, by 1 hour) was 50% and the “reduction of Inotrope Scores” value ([5]; Group A, by 12 hours) was 45%. For the same compound, the “reduction of Inotrope Scores” value ([5]; Group A, by 24 hours) was 38%, the “average decrease in Inotrope Score per patient” value ([5]; Group A) was 44% and the “reduction of time in ICU” value ([5]; Group B, 100mg/kg bolus and 12.5mg/kg/hour infusion, 24 patients) was 50 h. For the same compound, the “decrease of time in ICU” value [5, 7] was 40%, the “decrease of ventilator time” value [5, 7] was 23% and the “reduction of ventilator time” value [5, 7] was 18 h and 19 h. The “reduction of Inotrope Scores” value ([5]; Group B, by 1 hour) was 57%, the “reduction of Inotrope Scores” value ([5]; Group B, by 12 hours) was 49% and the “reduction of Inotrope Scores” value ([5]; Group B, by 24 hours) was 45%. The “average decrease in Inotrope Score per patient” value ([5]; Group B) was 51%, the side-effects (patients; general observation in patients) was “not have significant side-effects, although some patients experience mild drowsiness” and the “adverse effects of DCA” value (patients; previous (pilot) studies) was “no adverse effects”.
